Tested on: Acremonium chrysogenum wild-type (WT) ATCC 11550
Assay: Fungal growth inhibition (drop-dilution, CD agar), WT strain
Assay type: cell-based
Details: Hapsidospora chrysogena, ATCC11550, 336 h, 5 mM inhibitor, 14 days after inoculation on CD medium
Source text: Two strains of Acremonium chrysogenum were used in this study: the wild-type (Brotzu) isolate ATCC 11550 (WT) and high-cephalosporin-yielding RNCM F-4081D (HY), derived from the WT [37]. The cultivation conditions were the same as previously described. The filamentous fungi were cultivated on agarized Czapek-Dox (CD) medium (30 g/L sucrose, 2 g/L NaNO3, 1 g/L K2HPO4, 0.5 g/L MgSO4×7 H2O, 0.5 g/L KCl, 0.01 g/L FeSO4×7 H2O, 20 g/L agar, pH 7.0–7.4). To determine the toxic effect of AO-Agm, APA, DFMA and DFMO on the growth of fungal cells the drop-dilution method was used with some modifications as described earlier. Cells were collected from agar slants and diluted with 0.9% NaCl solution up to OD600 = 0.5 (basic concentration), followed by serial tenfold dilutions with the same solution. […] The inoculated Petri dishes were incubated for 21 days at 26 °C. The inhibitory effects of the compounds were measured every three days after inoculation and evaluated by measuring the ratio of colony growth on agarized CD medium supplemented with AO-Agm, APA, DFMA, or DFMO to the growth in the control (agarized CD medium without any additions). The formula: growth inhibition % = [(Dc − Dt)/Dc] × 100, where Dc indicates the colony diameter in control set, and Dt indicates the colony diameter in the treatment set that was used to determine the percent of fungal growth inhibition. The data recorded were measured in triplicate and repeated at least twice.

`N=C(N)NCCCON` [AO-Agm, 1-aminooxy-3-guanidinopropane] was tested, and the inhibition at 5000 µM was 34%.
